In patent US11173175B2, “Uridine diphosphate compounds as mobilizers of hematopoietic progenitor cells” (University of Pittsburgh—Of the Commonwealth System of …, priority 2012, dated 2021):
“Also recorded” adds a separate entry of the source.

Experiments:
P2Y14 receptor [1] = target: T1, P2Y14 receptor (Homo sapiens, UniProt Q15391); conditions: cited from earlier work
T1 sequence (Q15391 1-338): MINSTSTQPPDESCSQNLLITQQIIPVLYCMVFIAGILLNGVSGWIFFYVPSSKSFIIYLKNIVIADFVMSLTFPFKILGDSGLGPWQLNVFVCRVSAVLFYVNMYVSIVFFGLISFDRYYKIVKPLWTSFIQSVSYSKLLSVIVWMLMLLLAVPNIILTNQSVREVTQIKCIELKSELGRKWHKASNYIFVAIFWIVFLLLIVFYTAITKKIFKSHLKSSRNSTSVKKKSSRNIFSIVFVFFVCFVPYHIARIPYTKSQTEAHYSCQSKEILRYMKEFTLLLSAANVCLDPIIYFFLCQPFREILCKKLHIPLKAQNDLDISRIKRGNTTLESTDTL

LSK and SLAM LSK cells = assay: HSPC mobilization: LSK and SLAM LSK cells quantified by flow cytometry; type: in vivo, mice
Protocol: (§1) We used 4-6 weeks old C57BL6 and BALB/C in all the experiments. Mice received subcutaneous injections of UDP-glucose (200 mg/kg, Sigma) dissolved in sterile endotoxin-free PBS. G-CSF (Neupogen, Amgen) was administered daily at a dose of 300 μg/kg subcutaneously for 4 consecutive days as previously described (Broxmeyer et al., 2005). […] Antioxidant, N-acetyl-L-cysteine (Sigma-Aldrich), was administered subcutaneously at 100 mg/kg/day. Bone marrow cells were obtained from both femur and tibia and used for flow cytometry and Western blot analysis. All animal studies were conducted after review by the University of Pittsburgh's Institutional Animal Care and Use Committee and in accordance with the University of Pittsburgh's Policy on the Care, Welfare and Treatment of Laboratory Animals.
Peripheral blood Lin-/Sca-1+/c-Kit+(LSK) and CD150+CD48-(SLAM) LSK cells were phenotyped using the following antibodies: lineage markers PE-Cy7-conjugated anti-CD3, anti-CD4, anti-CD8, anti-CD45R, anti-CD11b, anti-Gr-1, and anti-TER-119 (eBioscience); PE-conjugated anti-Sca-1 (eBioscience); APC-conjugated anti-c-Kit (eBioscience); perCP/Cy5.5-conjugated anti-CD150 (BioLegend); pacific Blue™-conjugated anti-CD48 (BioLegend). […] Mitochondrial superoxide level was measured using MitoSox™ (Invitrogen) within LSK cells, according to manufacturer's instructions.
as §1, with “Mice” for “We used 4-6 weeks old C57BL6 and BALB/C in all the experiments. Mice”, “(10).” for “(Broxmeyer et al., 2005).”

LSK cells = assay: Chemotaxis assay; type: cell-based, mouse; conditions: CXCL12 120 ng/ml; UDP-Glc, UTP, UDP 10 μM; 6 hours
[2] = tested on: white blood cell (WBC) and lineage-marker expressing cells (CD3, CD11b, and Gr-1); conditions: G-CSFR deficient mice
P2Y14 receptor [3] = target: T1, P2Y14 receptor; conditions: Carter et al. 2009; cited from earlier work
RANKL = RANKL expression by Western blot and immunohistochemistry; type: in vivo, mice; conditions: NAC 100 mg/kg/day in comparison with UDP-Glc-treated animals
osteoclasts = assay: TRAP staining of femur sections; type: in vivo, mice; conditions: NAC treatment
CXCR4 = CXCR4 expression on LSK and SLAM LSK cells; type: in vivo, mice
Protocol: FIG. 14A-14F. […] HSPC mobilization was assessed by measuring the numbers of LSK (upper left panel) and SLAM LSK (upper right panel) cells in peripheral blood. […] Representative images of TRAP staining from each group are shown (bottom panels). […] Shown are obtained from 6-8 weeks old animals. (C) Mice (B6) were injected as described in the legend to FIG. 11A. Bone marrow cells were collected from each treatment group and stained with indicated antibodies followed by flow cytometry analysis. The data are shown as mean values of three independent experiments with standard deviation. ** p<0.01. (D) Bone marrow mononuclear cells were isolated from B6 mice treated as above. To determine the protease activity, bone marrow supernatants harvested from indicated treatment groups were analyzed by zymogram analysis as described in the Methods section. The intensity of the zymogram bands (left panels) was analyzed utilizing densitometry and expressed as arbitrary units (right panels). Densitometric analyses are represented as the ratios to vehicle-treated group (CTL) set to 1. […] (E) Mice were treated as described in the legend to FIG. 13F. Expression levels of CXCR4 were determined in bone marrow (upper panel) and peripheral blood (lower panel) cells after gating on LSK or SLAM LSK subsets. Data are expressed as mean±SD from at least two independent experiments with four mice per group. […]

[4] = tested on: bone marrow homing of peripheral blood cells
[5] = tested on: long-term repopulating HSPCs; assay: Competitive repopulation and serial transplantation assays; type: in vivo, mice
Protocol: (§2) The ratio of CD45.1/CD45.2 cells in recipient's peripheral blood was determined at various times after transplantation.
as §2

MMP-9 = assay: Zymographic analysis of bone marrow supernatants; type: in vivo, mice
Protocol: (§3) FIG. 14A-14F. […] HSPC mobilization was assessed by measuring the numbers of LSK (upper left panel) and SLAM LSK (upper right panel) cells in peripheral blood. […] Representative images of TRAP staining from each group are shown (bottom panels). […] Shown are obtained from 6-8 weeks old animals. (C) Mice (B6) were injected as described in the legend to FIG. 11A. Bone marrow cells were collected from each treatment group and stained with indicated antibodies followed by flow cytometry analysis. The data are shown as mean values of three independent experiments with standard deviation. ** p<0.01. (D) Bone marrow mononuclear cells were isolated from B6 mice treated as above. To determine the protease activity, bone marrow supernatants harvested from indicated treatment groups were analyzed by zymogram analysis as described in the Methods section. The intensity of the zymogram bands (left panels) was analyzed utilizing densitometry and expressed as arbitrary units (right panels). Densitometric analyses are represented as the ratios to vehicle-treated group (CTL) set to 1. […] (E) Mice were treated as described in the legend to FIG. 13F. Expression levels of CXCR4 were determined in bone marrow (upper panel) and peripheral blood (lower panel) cells after gating on LSK or SLAM LSK subsets. Data are expressed as mean±SD from at least two independent experiments with four mice per group. […] Recipient mice were conditioned (11 Gy) 24 hours before injection of cells.

cathepsin G (CG) = assay: Zymographic analysis of bone marrow supernatants; type: in vivo, mice
Protocol: as §3

neutrophil elastase (NE) = assay: Zymographic analysis of bone marrow supernatants; type: in vivo, mice
Protocol: as §3

[6] = percentage of gated cells within the total number, UDP-Glc 200 mg/kg 6 days, G-CSF 300 μg/kg 4 days

## O=c1ccn([C@@H]2O[C@H](COP(=O)([O-])OP(=O)([O-])O[C@H]3O[C@H](CO)[C@@H](O)[C@H](O)[C@H]3O)[C@@H](O)[C@H]2O)c(=S)[nH]1.[Na+].[Na+] [MRS 2690]
P2Y14 receptor [1]
  potency relative to UDP-Glc: approximately 7 fold

## O=c1ccn([C@@H]2O[C@H](COP(=O)(O)OP(=O)(O)O)[C@@H](O)[C@H]2O)c(=O)[nH]1 [UDP, uridine diphosphate]
LSK and SLAM LSK cells; UDP 200 mg/kg s.c.
  LSK cells in the peripheral circulation, UDP alone: did not elicit any appreciable change in the number of LSK cells
LSK and SLAM LSK cells; UDP 200 mg/kg with UDP-Glc 200 mg/kg
  effect of UDP on UDP-Glc-induced LSK cell mobilization: antagonized UDP-Glc-induced LSK cell mobilization
LSK cells
  chemotactic migration of mouse LSK cells: could chemoattract LSK cells in vitro in the presence or absence of CXCL12
[2]
  peripheral CD11b+, GR1+ and CD3+ cells in Csf3r−/− mice: minimally affected
P2Y14 receptor [3]
  agonist activity at the human P2Y14 receptor: potent agonist of the human P2Y14 receptor

## O=c1ccn([C@@H]2O[C@H](COP(=O)(O)OP(=O)(O)OP(=O)(O)O)[C@@H](O)[C@H]2O)c(=O)[nH]1 [UTP, uridine-5′-triphosphate, reference compound]
LSK cells
  chemotactic migration of mouse LSK cells: only a slight increase for mouse LSK cell migration with no statistical significance

## CC(=O)N[C@@H](CS)C(=O)O [NAC, N-acetyl-L-cysteine]
LSK and SLAM LSK cells; NAC 100 mg/kg/day s.c.
  effect of NAC on UDP-Glc-induced LSK / SLAM LSK cell mobilization: significantly abrogate the LSK and SLAM LSK cell mobilization induced by UDP-Glc; also recorded: significantly suppressed by NAC treatment
RANKL
  RANKL expression with NAC: notably lowered
osteoclasts
  UDP-Glc-induced osteoclastogenesis with NAC: significantly suppressed with NAC treatment
CXCR4
  effect of NAC on UDP-Glc-induced CXCR4 expression: able to abrogate the increase of CXCR4 expression induced by UDP-Glc, albeit not completely
[4]
  effect of NAC pretreatment on homing of UDP-Glc-mobilized cells: inhibited by NAC pretreatment

B1: G-CSF: G-CSF (Neupogen, Amgen), most commonly used cytokine for mobilization of HSPCs (protein, chains of the INN, looked up)
chain: MTPLGPASSLPQSFLLKCLEQVRKIQGDGAALQEKLCATYKLCHPEELVLLGHSLGIPWAPLSSCPSQALQLAGCLSQLHSGLFLYQGLLQALEGISPELGPTLDTLQLDVADFATTIWQQMEELGMAPALQPTQGAMPAFASAFQRRAGGVLVASHLQSFLEVSYRVLRHLAQP
LSK and SLAM LSK cells; [6]
  LSK cells in mobilized peripheral blood: 0.058%
  SLAM LSK cells in mobilized peripheral blood: 0.0014%
[5]; one month following transplantation
  competitive repopulation, UDP-Glc- vs G-CSF-mobilized cells, early: considerable competitive advantage over UDP-Glc-mobilized cells
[5]; serial transplantation, UDP-Glc (CD45.2) vs G-CSF (CD45.1)
  competition in secondary recipients, bone marrow cells: completely out-competed by the cells derived from UDP-Glc mobilization
MMP-9
  level of MMP-9: Elevated levels
Cathepsin G (CG)
  level of CG: Elevated levels
Neutrophil elastase (NE)
  level of NE: Elevated levels
